# Columns and labels:
# Format in all cases: in vivo
# [1] = system: Pyricularia oryzae; conditions: foliage spray on rice seedlings (cv. […]), number of lesions six days after the inoculation
# [2] = system: Sphaerotheca fuliginea; assay: Controlling effect on Sphaerotheca fuliginea by foliage application (pot experiment); conditions: foliage spray on cucumber (cv. TSUKUBASHIROIBO) first leaves, infected area after 10 days in greenhouse at 20° C.; for pest or weed control at 500 ppm: Podosphaera fuliginea, in Cucumis sativus, foliar, 240 h, read-out: Controlling effect on Sphaerotheca fuliginea by foliage application at 500 ppm (percent control)
# Procedure, shortened: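 First leaves of cucumber seedlings, 2-3 weeks old, were sprayed with compound (DMF solution diluted in water with spreader). They were inoculated 24 h later with a Sphaerotheca fuliginea conidia spray and kept 10 days at 20° C in a greenhouse. Percent control was calculated from infected leaf area.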
# [3] = system: Erysiphe graminis f. sp. tritici; assay: Controlling effect on Erysiphe graminis f. sp. tritici by foliage application (pot experiment); conditions: foliage spray on wheat (cv. NORIN No. 61) seedlings, infected area after 10 days in greenhouse at 20° C.; for pest or weed control at 500 ppm: Blumeria graminis, foliar, 240 h, read-out: Controlling effect on ErYsiphe graminis f. sp. tritici by foliage application at 500 ppm (percent control)
# Procedure, shortened: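 Wheat seedlings (cv. NORIN No. 61, 2-3 weeks old) sprayed with compound in DMF diluted in water with spreader, then inoculated with conidia 24 hours later. Kept in greenhouse at 20 °C for 10 days; percent control calculated from infected leaf area.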
# [4] = system: Pseudoperonospora cubensis; assay: Controlling effect on Pseudoperonospora cubensis by foliage application (pot experiment); conditions: foliage spray on cucumber (var. TSUKUBASHIROIBO) first leaves, lesion area after 10 days in moist chamber at 20° C.
# Method: The following Test Examples illustrate the effects of the fungicide of the present invention. (I. Controlling effects on various plant diseases by foliage application (pot experiment)) A test compound was dissolved in a small amount of N,N-dimethylformamide, and the solution was diluted to a given concentration with distilled water containing a spreader. Thus, a liquid sample to be tested was prepared. The liquid sample was sprayed to test plants, and 24 hours thereafter, pathogens were inoculated by the method described below. […] The seeds of cucumber (var.: […]) were sown in plastic cups (each 9 cm in diameter), followed by cultivation for 2 to 3 weeks. The test compound in the form of a solution or suspension was sprayed to the surface of their first leaves, and a zoosporangia suspension of Pseudoperonospora cubensis cultured on cucumber leaves was dropped on the above leaf surfaces to inoculate the test plants with the pathogen. After the inoculation, the plants were kept in a moist chamber at 20° C. for 10 days. Then, the area of the lesions around the inoculum were observed and the percent control was calculated.
# [5] = system: Puccinia coronata; assay: Controlling effect on Puccinia coronata by foliage application (pot experiment); conditions: foliage spray on oat (cv. PC-38) seedlings, infected area after 1 day moist chamber and 8 days greenhouse at 20° C.
# Method: The following Test Examples illustrate the effects of the fungicide of the present invention. (I. Controlling effects on various plant diseases by foliage application (pot experiment)) A test compound was dissolved in a small amount of N,N-dimethylformamide, and the solution was diluted to a given concentration with distilled water containing a spreader. Thus, a liquid sample to be tested was prepared. The liquid sample was sprayed to test plants, and 24 hours thereafter, pathogens were inoculated by the method described below. […] The seeds of oat (cv.: PC-38) were sown in plastic cups (each 9 cm in diameter), followed by cultivation for 2 to 3 weeks. The test compound in the form of a solution or suspension was sprayed to the seedlings. Spores of Puccinia coronata cultured on oat leaves were collected, diluted about 10-fold with talc, and sprayed to the test plants to inoculate the plants with the pathogen. After the inoculation, the plants were kept in a moist chamber at 20° C. for 1 day and then in a greenhouse at 20° C. for 8 days. The infected area on the leaf was observed, and the percent control was calculated.
SMILES,Controlling effect on PYricularia orYzae by foliage application at 500 ppm (percent control) [1] [percent control],Controlling effect on Sphaerotheca fuliginea by foliage application at 500 ppm (percent control) [2] [percent control],Controlling effect on ErYsiphe graminis f. sp. tritici by foliage application at 500 ppm (percent control) [3] [percent control],Controlling effect on Pseudoperonospora cubensis by foliage application at 500 ppm (percent control) [4] [percent control],Controllng effect on Puccinia coronata by foliage application at 500 ppm (percent control) [5] [percent control],pest or weed control at 500 ppm [2] [%],pest or weed control at 500 ppm [3] [%]
"CON=C(c1ccccc1COc1cc(Cl)ccc1Cl)c1nccn1C (single isomer, unassigned) [131A]",90,100,90,100,–,–,–
"CON=C(c1ccno1)c1ccccc1COc1ccccc1C (single isomer, unassigned) [512A]",90,100,97,100,–,–,–
"CON=C(c1ccno1)c1ccccc1COc1ccccc1C (single isomer, unassigned) [512B]",97,100,97,100,–,–,–
"CON=C(c1ccno1)c1ccccc1COc1cc(C)ccc1C (single isomer, unassigned) [536A]",–,100,97,–,90,–,–
"CON=C(c1ccno1)c1ccccc1COc1ccc(Cl)cc1C (single isomer, unassigned) [541B]",70,100,90,100,–,–,–
"CON=C(c1cc(C)no1)c1ccccc1COc1cccc(C)c1 (single isomer, unassigned) [613A]",70,100,90,70,–,–,–
"CON=C(c1cc(C)no1)c1ccccc1COc1ccc(C)cc1 (single isomer, unassigned) [614B]",70,97,70,100,–,–,–
"CON=C(c1cc(C)no1)c1ccccc1COc1ccc(Cl)cc1C (single isomer, unassigned) [641A]",70,100,90,100,–,–,–
"CON=C(c1cc(C)no1)c1ccccc1COc1ncc(C(F)(F)F)cc1Cl (single isomer, unassigned) [690A, 2-(3-chloro-5-trifluoromethyl-2-pyridyloxymethyl)phenyl 3-methylisoxazol-5-yl ketone O-methyloxime]",97,–,–,100,–,100,100
CON=C(C1=NCCN1C)c1ccccc1COc1cc(C)ccc1C [Compound No. 1136],–,100,90,–,90,–,–
"CON=C(c1ccccc1ON=C(C)c1cccc(C(F)(F)F)c1)C1NCCS1 (stereo not drawn) [Compound No. 2799, 2-[(α-methyl-3-trifluoromethylbenzylidene)aminooxy]phenyl thiazolidin-2-yl ketone O-methyloxime]",100,–,–,95,–,100,97
CON=C(c1ccccc1CON=C(C)c1cccc(C(F)(F)F)c1)C1SCCN1C (stereo not shown) [Compound No. 2839],90,100,97,95,–,–,–
CON=C(c1ccccc1COc1cccnc1Cl)n1ccnc1 [compound 57],–,90,70,–,90,–,–
C=CCON=C(c1ccccc1COc1ccccc1)n1cccn1 [compound 298],–,–,–,–,70,–,–
CON=C(c1nnco1)c1ccccc1COc1cccc(Cl)c1 [compound 706],70,100,90,100,–,–,–
CCc1cccc(OCc2ccccc2C(=NOC)c2nnco2)c1 [compound 716],70,100,70,100,–,–,–
CON=C(c1nnco1)c1ccccc1COc1cc(Cl)ccc1Cl [compound 731],70,100,70,100,–,–,–
CON=C(c1noc(C)n1)c1ccccc1COc1ccc(C)cc1 [compound 914],–,–,–,–,97,–,–
CON=C(c1ccccc1COc1ccccc1)c1nnnn1C [compound 1001],–,–,–,–,70,–,–
CON=C(C1=NCCN1C)c1ccccc1COc1cccc(C)c1 [compound 1113],–,–,–,–,70,–,–
CON=C(c1nnn(C)n1)c1ccccc1COc1ccccc1 [compound 2001],–,70,–,–,70,–,–

# From patent publication US6362212B1, “Oxime derivative and bactericide containing the same as active ingredient” (Shionogi & Company, Ltd., priority 1994, dated 2002)
